According to paper PMC5040747, “Preparation and Evaluation of a Novel Class of Amphiphilic Amines as Antitumor Agents and Nanocarriers for Bioactive Molecules” (Pharmaceutical Research, 2016):
Like-named read-outs stand apart in the source and are kept apart here.

Tests used:
Rh41 = assay: MTT cell proliferation assay, Rh41; format: cell-based; settings: Homo sapiens, Rh41, Rhabdomyosarcoma, read-out: Cell killing activity IC50
Method: (§1) Cells were plated in 96-well tissue culture plates at a density of 1 × 10^3 cells/well, allowed to attach 24 h, and then left untreated or treated with growth medium containing different concentrations of the tested RCn compounds previously dissolved in PBS. After different time periods the cell vitality was determined by MTT assay according to the manufacture’s instruction (Promega). Results are reported as the micromolar concentration of RCn reducing cell survival to 50% (IC50).

MDA-MB-231 = assay: MTT cell proliferation assay, MDA-MB-231; format: cell-based; settings: Homo sapiens, MDA-MB-231, adult tumor cell line, read-out: Cell killing activity IC50
Method: as §1

S462.TY cells = assay: Interaction of RC16 with sialic acid (MTT); format: cell-based, human; settings: 24 h
Method: Neuraminidase was used to cleave the sialic acid residues from the polysialilated glycoproteins and gangliosides of the tumor cell surface and the anticancer activity of RC16 was subsequently tested in comparison with the cells not exposed to Neuraminidase. Cells were seeded on 96 well plates at a density of 2 × 10^4 cells /plate and after 24 h were exposed to 50 IU/mL Neuraminidase Type VI from Clostridium Perfrigens (Sigma) for 3 h. Cells were washed 3 times with PBS and afterwards treated with RC16 . The effect on cell number was evaluated after 24 h by MTT assay in comparison with cells not treated with Neuraminidase. The RC16 –sialic acid interaction was also evaluated by adding sialic acid to the culture medium in stoichiometric amount with respect to RC16. In this experiment cells seeded on 96 well plates at a density of 2 × 10^4 cells /plate and after 24 h were treated with a mixture of RC16 : sialic acid (3 μM : 3 μM). After 24 h the effect on cell number was evaluated by MTT assay in comparison with cells treated with pure RC16 or pure sialic acid at the same concentration (3 μM) of the mixture.

S462TY = assay: MTT cell proliferation assay, S462TY; format: cell-based; settings: Homo sapiens, Malignant Peripheral Nerve Sheath Tumor, read-out: Cell killing activity IC50
Method: as §1

Ramos = assay: MTT cell proliferation assay, Ramos; format: cell-based; settings: Homo sapiens, Lymphoma, read-out: Cell killing activity IC50
Method: as §1

143.98.2 = assay: MTT cell proliferation assay, 143.98.2; format: cell-based; settings: Homo sapiens, 143.98.2, Osteosarcoma, read-out: Cell killing activity IC50
Method: as §1

A549 = assay: MTT cell proliferation assay, A549; format: cell-based; settings: Homo sapiens, A549, adult tumor cell line, read-out: Cell killing activity IC50
Method: as §1

CCCCCCCCCCCCCCC1CN2CCCN3CCCCCC132 (centres unmarked) [RC16, 2-tetradecyl-4,8-diazatricyclo[6.5.0.0^1,^4]tridecane]
IC50 (Rh41; 24 h): 0.25 µM | IC50 (Rh41; 48 h): 0.15 µM | IC50 (MDA-MB-231; 24 h): 2.96 µM | IC50 (MDA-MB-231; 48 h): 1.67 µM | Anticancer activity after Neuraminidase pre-treatment of cells (S462.TY cells; RC16 3 μM, versus cells not exposed to Neuraminidase): decreased the anticancer activity of RC16 | Anticancer activity with sialic acid added to culture medium (S462.TY cells; RC16 : sialic acid 3 μM : 3 μM, versus pure RC16): decreased the RC16 anticancer activity | IC50 (S462TY; 24 h): 1.11 µM | IC50 (S462TY; 48 h): 0.76 µM | IC50 (Ramos; 24 h): 0.1 µM | IC50 (Ramos; 48 h): 0.04 µM | IC50 (143.98.2; 24 h): 0.5 µM | IC50 (143.98.2; 48 h): 0.32 µM | IC50 (A549; 24 h): 6.62 µM | IC50 (A549; 48 h): 5.58 µM
